{
  "source": "patent US20230041065A1",
  "about": "“METHODS FOR GENERATING HEMATOPOIETIC STEM CELLS” (The Brigham and Women`s Hospital, Inc., priority 2019, published 2023)",
  "key": {"E11.5 AGM cells": {"test_system": "E11.5 AGM cells", "assay": "Hematopoietic CFU and FACS assays on E11.5 AGM cells", "format": "cell-based, mouse", "details": "for GEMM formation: 50 μM", "protocol": "Pulsating blood vessels like conditions were stimulated in vitro using Flexcell FX-4000 machine. To analyze roles of pharmacological targets in regulating the endothelial-to-HSC transition, mouse embryo-derived AGM or whole mouse embryo were exposed ex vivo with biomechanical stretching, chemicals, or drugs. Next, hematopoietic colony formation assays were performed by incubating mouse AGM-derived cells in StemCell M3434 media for seven days. Serial transplantation of AGM-derived HSCs in lethally irradiated SJL mice were performed. The stem cell frequency upon biomechanical stretching was analyzed using a limiting dilution assay. To characterize properties of AGM-HSC-derived blood cells in primary transplants, percentage chimerism and reconstitution was measured using FACS, globin transcripts were analyzed using quantitative reverse transcriptase-PCR, myeloperoxidase amount was measured using PicoKine ELISA kit, TCR-β rearrangement was analyzed using PCR for TCR-β locus, pre-immune IG detection was analyzed using Thermo-Fisher Mouse Ig Isotyping kit, and delayed-type hypersensitivity was analyzed by injecting sheep RBC (Rockland Immunochemicals) in the footpad of pre-sensitized mice. E11.5 AGM were harvested from C57BL6/J Cd45.2 mouse embryos, and a single cell suspension of a three-embryo equivalent of cells was seeded on each well of a BioFlex six-well culture plate ([…]). We cultured cells overnight with the application of cyclic strain (Flexcell® FX4000TM Tension System) and/or treatment with chemical modulators (2-100 μM Yoda1, 1 μM Nanaomycin, 100 μM Gdcl3, 1 uM GsMT×4, 5-20 μM 4αPDD, 10 uM GSK205). Next, harvested cells were used to perform transplant, fluorescence-activated cell sorting (FACS) analysis, and colony-forming unit (CFU) assays. For CFU assays, cells from AGM explant or ex vivo were plated in MethoCult GF M3434 media (StemCell Technologies). Seven days after seeding, we analyzed their capacity to make granulocyte, erythroid, macrophage, megakaryocyte (GEMM), granulocyte macrophage (GM), granulocyte (G), macrophage (M), and erythroid (E) colonies."}, "zebrafish embryos": {"test_system": "zebrafish embryos", "assay": "HSPC marker expression in zebrafish embryos (whole mount in situ hybridization)", "format": "in vivo", "protocol": "(§1) Zebrafish embryos were treated with the following chemical modulators in E3 fish media: 100 uM L-NAME (Fisher Scientific), 50 uM Digitoxigenin (Sigma), 25-50 uM Yoda1 (Cayman Chemical), 1 uM Nanaomycin (Nana; Fisher Scientific), 100 uM Gadolinium chloride (GdCl3; Sigma), 5-10 uM 4α-phorbol 12, 13-didecanaote (4Apdd; Sigma), or GSK205 (10 uM).\nWhole mount in situ hybridizations was performed as previously described."}, "[1]": {"test_system": "cd41:eGFP+ HSCs emerging from flk1:mCherry+ endothelial cells", "assay": "Time-lapse confocal imaging of cd41:eGFP+ HSCs emerging from flk1:mCherry+ endothelial cells in transgenic embryos", "format": "in vivo, zebrafish", "details": "embryos concurrently treated with or without Yoda1", "protocol": "Mice were purchased Cd45.2 (C57BL6/J) and Cd45.1 (SJL) from The Jackson Laboratory and zebrafish morpholinos from GeneTools. Microangiography was performed by injecting fluorescent-labeled dextran dye in the atrium of zebrafish heart and its passage was recorded using live imaging. Immunostaining of zebrafish heart and mouse AGM were analyzed using an inverted fluorescent microscope. Cardiac tamponade, heart rate, and pulse frequency were analyzed in zebrafish embryos using bright field imaging or time-lapse confocal microscopy. The movement of red blood cells in blood vessels was analyzed as well as the endothelial-to-HSC transition in zebrafish transgenic embryos using time-lapse confocal imaging.\nas §1\ncd41:eGFP were crossed with flk1:mCherry zebrafish and flk1:mCherry with lcr:eGFP zebrafish and injected morpholino in their transgenic embryos. […] The relative movement of lcr:eGFP^+ red blood cells was analyzed in the context of flk1:mCherry^+ endothelium. We performed image analysis using Imaris (Bitplane) software."}},
  "note": "Where no end group is shown, it is not given here.",
  "data": [
    {"compound": "Cc1oc(-c2cccs2)cc1C(=O)O", "note": "[Jedi2]", "values": [
      {"measurement": "GEMM formation", "setting": "E11.5 AGM cells", "value": "enhances GEMM formation"}
    ]},
    {"compound": "COC(=O)[C@@H](N)CCCNC(=N)N[N+](=O)[O-]", "note": "[L-NAME]", "values": [
      {"measurement": "HSPC formation", "setting": "zebrafish embryos; cdh5-MO embryos", "value": "does not impact HSPC formation in cdh5-MO embryos"},
      {"measurement": "HSPC formation", "setting": "zebrafish embryos; control embryos", "value": "attenuates HSPC formation in control embryos"}
    ]},
    {"compound": "[Cl][Gd]([Cl])[Cl]", "note": "[GdCl3, Gadolinium chloride]", "values": [
      {"measurement": "formation of multipotent hematopoietic progenitors potentiated by 10% cyclic strain", "setting": "E11.5 AGM cells; 10% cyclic strain plus stretch-activated receptor inhibitor", "value": "attenuated"},
      {"measurement": "HSPC expression", "setting": "zebrafish embryos; zebrafish embryos", "value": "attenuated HSPC expression in zebrafish embryos to the level of sih-MO embryos"}
    ]},
    {"compound": "GsMtX4: pharmacological inhibition of Piezo1 (GCLEFWWKCNPNDDKCCRPKLKCSKLFKLCNFSF; ends and bridges not checked; cysteine pairing not given here; UniProt Q7YT39 47-80, looked up)", "values": [
      {"measurement": "hematopoietic colony formation induced by cyclic strain", "setting": "E11.5 AGM cells; cyclic strain plus Piezo1 inhibitor", "value": "attenuates the inductive impact of cyclic strain on the endothelial-to-HSC transition"}
    ]},
    {"compound": "CC1OC(CC(=O)O)CC2=C1C(=O)c1c(O)cccc1C2=O", "note": "(centres unmarked) [Nanaomycin]", "values": [
      {"measurement": "Piezo1 activation (Yoda1)-mediated increase in HSC formation", "setting": "[1]", "value": "attenuated the Piezo1 activation-mediated increase in HSC formation"},
      {"measurement": "hematopoietic colony formation stimulated by cyclic strain or Yoda1", "setting": "E11.5 AGM cells; cyclic strain or Yoda1 in the presence of Nanaomycin", "value": "attenuates the endothelial-to-HSC transition stimulated by circumferential stretch or Piezo1 activation"},
      {"measurement": "phenotype of hematopoietic cells after treatment", "setting": "E11.5 AGM cells; stretch- or Piezo1 activation-treated AGM cells", "value": "reverts hematopoietic cells into phenotypic endothelial cells"},
      {"measurement": "HSPC marker expression", "setting": "zebrafish embryos; control and cdh5-MO embryos", "value": "attenuated HSPC marker expression in control and cdh5-MO embryos"}
    ]},
    {"compound": "Cc1oc(-c2ccccc2)cc1C(=O)O", "note": "[Jedi1]", "values": [
      {"measurement": "GEMM formation", "setting": "E11.5 AGM cells", "value": "enhances GEMM formation"}
    ]}
  ]
}
